{"source": "patent US10758534B2", "about": "(Vertex Pharmaceuticals Incorporated, priority 2014, dated 2020)", "target": "T1, F508del (Homo sapiens, UniProt P13569, DEL508-508)", "T1 construct": "expressed in transfected cells", "T1 sequence (P13569 with tags, fused parts or gaps DEL508-508)": "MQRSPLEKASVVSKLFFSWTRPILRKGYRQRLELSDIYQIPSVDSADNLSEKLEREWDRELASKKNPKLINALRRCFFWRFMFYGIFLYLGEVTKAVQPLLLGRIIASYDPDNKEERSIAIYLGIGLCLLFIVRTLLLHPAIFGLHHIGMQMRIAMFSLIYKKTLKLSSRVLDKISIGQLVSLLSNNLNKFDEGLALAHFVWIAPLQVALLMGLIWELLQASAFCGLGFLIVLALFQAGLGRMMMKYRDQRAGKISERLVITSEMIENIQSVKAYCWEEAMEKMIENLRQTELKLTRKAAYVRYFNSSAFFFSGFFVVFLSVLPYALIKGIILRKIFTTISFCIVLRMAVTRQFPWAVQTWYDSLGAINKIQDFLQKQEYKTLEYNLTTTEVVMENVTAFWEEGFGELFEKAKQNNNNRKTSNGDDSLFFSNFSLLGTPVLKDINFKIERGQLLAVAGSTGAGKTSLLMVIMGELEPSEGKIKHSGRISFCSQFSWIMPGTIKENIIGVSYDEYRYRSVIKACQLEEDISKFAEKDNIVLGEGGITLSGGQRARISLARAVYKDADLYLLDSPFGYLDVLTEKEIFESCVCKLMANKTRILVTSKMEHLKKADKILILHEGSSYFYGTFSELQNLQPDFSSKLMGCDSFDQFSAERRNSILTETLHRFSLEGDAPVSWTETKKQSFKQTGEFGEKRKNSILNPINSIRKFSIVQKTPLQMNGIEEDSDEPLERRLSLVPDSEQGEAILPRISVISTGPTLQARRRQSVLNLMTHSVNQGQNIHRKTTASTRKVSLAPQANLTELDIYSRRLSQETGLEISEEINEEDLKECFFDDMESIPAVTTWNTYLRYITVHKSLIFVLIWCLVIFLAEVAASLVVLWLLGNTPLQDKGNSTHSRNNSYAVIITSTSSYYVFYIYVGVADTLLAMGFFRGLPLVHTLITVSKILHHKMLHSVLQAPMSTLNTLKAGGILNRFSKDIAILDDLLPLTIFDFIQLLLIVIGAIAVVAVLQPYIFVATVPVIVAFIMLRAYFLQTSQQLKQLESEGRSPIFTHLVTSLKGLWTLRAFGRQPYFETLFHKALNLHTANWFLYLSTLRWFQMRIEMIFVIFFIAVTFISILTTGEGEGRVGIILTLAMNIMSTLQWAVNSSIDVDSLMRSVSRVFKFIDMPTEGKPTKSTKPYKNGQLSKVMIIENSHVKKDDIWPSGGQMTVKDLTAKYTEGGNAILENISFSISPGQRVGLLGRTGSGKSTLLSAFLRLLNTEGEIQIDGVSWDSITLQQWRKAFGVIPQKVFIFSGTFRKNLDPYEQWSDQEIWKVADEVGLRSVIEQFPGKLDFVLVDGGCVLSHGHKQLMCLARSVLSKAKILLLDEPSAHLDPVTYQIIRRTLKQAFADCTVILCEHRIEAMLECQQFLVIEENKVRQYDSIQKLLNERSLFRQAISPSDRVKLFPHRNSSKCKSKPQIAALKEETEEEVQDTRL", "test": "Protocol 2: FRET membrane potential optical assay (VIPR), identification of correction compounds", "type": "cell-based", "conditions": "Table 3; compounds of Table 1 as modulators of CFTR activity; protocol not stated", "summary_of_the_method": "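Single-addition HTS format: F508del-expressing NIH3T3 cells pre-incubated 16 hrs at 37° C. ± compound, with 27° C. culture as positive control. Channel activation by forskolin 10 μM and genistein 20 μM upon switch to gluconate bath, pH 7.4; read-out is FRET-based depolarization signal.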", "data": [{"smiles": "CC(C)COc1cc(F)cc(-c2ccc(C(=O)NS(=O)(=O)c3ccn[nH]3)c(N3CCC[C@@H](C)C3)n2)c1", "note": "[Compound 668, 6-(3-fluoro-5-isobutoxy-phenyl)-2-[(3R)-3-methyl-1-piperidyl]-N-(1H-pyrazol-5-ylsulfonyl)pyridine-3-carboxamide]", "values": [{"measurement": "EC30", "result": "+++ (“+++” means <3 uM)"}]}, {"smiles": "Cc1cc(C)c(CN2CCc3ccccc3CC2C(=O)NS(=O)(=O)c2cccc(N3CCOCC3)n2)c(C)c1", "note": "(centres unmarked) [Compound 669, N-[(6-morpholino-2-pyridyl)sulfonyl]-3-[(2,4,6-trimethylphenyl)methyl]-1,2,4,5-tetrahydro-3-benzazepine-4-carboxamide]", "values": [{"measurement": "EC30", "result": "+++ (“+++” means <3 uM)"}]}, {"smiles": "Cc1cc(C)c(Oc2nc(C)ccc2C(=O)NS(=O)(=O)c2ccn[nH]2)c(C)c1", "note": "[Compound 670, 6-methyl-N-(1H-pyrazol-5-ylsulfonyl)-2-(2,4,6-trimethylphenoxy)pyridine-3-carboxamide]", "values": [{"measurement": "EC30", "result": "++ (“++” means between 3 uM and 10 uM)"}]}, {"smiles": "Cc1cccc(C)c1Oc1nc(-c2cc(F)cc(OCC(C)C)c2)ccc1C(=O)NS(=O)(=O)c1ccn[nH]1", "note": "[Compound 671, 2-(2,6-dimethylphenoxy)-6-(3-fluoro-5-isobutoxy-phenyl)-N-(1H-pyrazol-5-ylsulfonyl)pyridine-3-carboxamide]", "values": [{"measurement": "EC30", "result": "+++ (“+++” means <3 uM)"}]}, {"smiles": "Cc1cccc(-c2ccc(C(=O)NS(=O)(=O)c3cccc(N)n3)c(Oc3c(C)cc(C)cc3C)n2)c1", "note": "[Compound 672, N-[(6-amino-2-pyridyl)sulfonyl]-6-(m-tolyl)-2-(2,4,6-trimethylphenoxy)pyridine-3-carboxamide]", "values": [{"measurement": "EC30", "result": "+++ (“+++” means <3 uM)"}]}, {"smiles": "Cc1cc(C)c(Oc2nc(-c3ccc4c(c3)OCCO4)ccc2C(=O)NS(=O)(=O)c2cccc(N)n2)c(C)c1", "note": "[Compound 673, N-[(6-amino-2-pyridyl)sulfonyl]-6-(2,3-dihydro-1,4-benzodioxin-6-yl)-2-(2,4,6-trimethylphenoxy)pyridine-3-carboxamide]", "values": [{"measurement": "EC30", "result": "+++ (“+++” means <3 uM)"}]}, {"smiles": "Cc1cc(C)c(CN2CCCc3ccccc3C2C(=O)NS(=O)(=O)c2ccccc2)c(C)c1", "note": "(centres unmarked) [Compound 674, N-(benzenesulfonyl)-2-[(2,4,6-trimethylphenyl)methyl]-1,3,4,5-tetrahydro-2-benzazepine-1-carboxamide]", "values": [{"measurement": "EC30", "result": "+++ (“+++” means <3 uM)"}]}, {"smiles": "CC(C)Oc1ccc(-c2ccc(C(=O)NS(=O)(=O)c3cccc(N)n3)c(N3C(C)CC4CCCCC43)n2)cn1", "note": "(centres unmarked) [Compound 675, N-[(6-amino-2-pyridyl)sulfonyl]-6-(6-isopropoxy-3-pyridyl)-2-(2-methyl-2,3,3a,4,5,6,7,7a-octahydroindol-1-yl)pyridine-3-carboxamide]", "values": [{"measurement": "EC30", "result": "+++ (“+++” means <3 uM)"}]}, {"smiles": "Cc1cc(C)c(Oc2nc(-n3ccc(C(F)(F)F)n3)ccc2C(=O)NS(=O)(=O)c2cccc(N)n2)c(C)c1", "note": "[Compound 676, N-[(6-amino-2-pyridyl)sulfonyl]-6-[3-(trifluoromethyl)pyrazol-1-yl]-2-(2,4,6-trimethylphenoxy)pyridine-3-carboxamide]", "values": [{"measurement": "EC30", "result": "+++ (“+++” means <3 uM)"}]}, {"smiles": "CC(C)COc1cc(F)cc(-c2ccc(C(=O)NS(=O)(=O)c3ccn[nH]3)c(N3CCCC(c4ccccn4)C3)n2)c1", "note": "(centres unmarked) [Compound 677, 6-(3-fluoro-5-isobutoxy-phenyl)-N-(1H-pyrazol-5-ylsulfonyl)-2-[3-(2-pyridyl)-1-piperidyl]pyridine-3-carboxamide]", "values": [{"measurement": "EC30", "result": "++ (“++” means between 3 uM and 10 uM)"}]}, {"smiles": "CC(C)COc1cc(F)cc(-c2ccc(C(=O)NS(=O)(=O)c3cccc(N)n3)c(N3CC[C@H](C)C3)n2)c1", "note": "[Compound 678, N-[(6-amino-2-pyridyl)sulfonyl]-6-(3-fluoro-5-isobutoxy-phenyl)-2-[(3S)-3-methylpyrrolidin-1-yl]pyridine-3-carboxamide]", "values": [{"measurement": "EC30", "result": "+++ (“+++” means <3 uM)"}]}, {"smiles": "CC(C)COc1cc(F)cc(-c2ccc(C(=O)NS(=O)(=O)c3ccn[nH]3)c(Oc3ccccc3)n2)c1", "note": "[Compound 679, 6-(3-fluoro-5-isobutoxy-phenyl)-2-phenoxy-N-(1H-pyrazol-5-ylsulfonyl)pyridine-3-carboxamide]", "values": [{"measurement": "EC30", "result": "+++ (“+++” means <3 uM)"}]}, {"smiles": "CC(C)COc1cc(F)cc(-c2ccc(C(=O)NS(=O)(=O)c3cccc(N)n3)c(N3CC4CCC3C4)n2)c1", "note": "(centres unmarked) [Compound 680, N-[(6-amino-2-pyridyl)sulfonyl]-2-(3-azabicyclo[2.2.1]heptan-3-yl)-6-(3-fluoro-5-isobutoxy-phenyl)pyridine-3-carboxamide]", "values": [{"measurement": "EC30", "result": "+++ (“+++” means <3 uM)"}]}, {"smiles": "CC(C)COc1ccc(F)c(-c2ccc(C(=O)NS(=O)(=O)c3ccn[nH]3)c(N3[C@H](C)CC[C@@H]3C)n2)c1", "note": "[Compound 681, 2-[(2S,5R)-2,5-dimethylpyrrolidin-1-yl]-6-(2-fluoro-5-isobutoxy-phenyl)-N-(1H-pyrazol-5-ylsulfonyl)pyridine-3-carboxamide]", "values": [{"measurement": "EC30", "result": "+++ (“+++” means <3 uM)"}]}, {"smiles": "COc1cc(F)cc(-c2ccc(C(=O)NS(=O)(=O)c3cccc(N)n3)c(Oc3c(C)cc(C)cc3C)n2)c1", "note": "[Compound 682, N-[(6-amino-2-pyridyl)sulfonyl]-6-(3-fluoro-5-methoxy-phenyl)-2-(2,4,6-trimethylphenoxy)pyridine-3-carboxamide]", "values": [{"measurement": "EC30", "result": "+++ (“+++” means <3 uM)"}]}, {"smiles": "CC(C)COc1cc(F)cc(-c2ccc(C(=O)NS(=O)(=O)c3cccc(N)n3)c(N(C)C3CCC3)n2)c1", "note": "[Compound 683, N-[(6-amino-2-pyridyl)sulfonyl]-2-[cyclobutyl(methyl)amino]-6-(3-fluoro-5-isobutoxy-phenyl)pyridine-3-carboxamide]", "values": [{"measurement": "EC30", "result": "+++ (“+++” means <3 uM)"}]}, {"smiles": "CC(C)COc1cc(F)cc(-c2ccc(C(=O)NS(=O)(=O)c3cccc(N)n3)c(N3CCC[C@@H](c4ccccc4)C3)n2)c1", "note": "[Compound 684, N-[(6-amino-2-pyridyl)sulfonyl]-6-(3-fluoro-5-isobutoxy-phenyl)-2-[(3S)-3-phenyl-1-piperidyl]pyridine-3-carboxamide]", "values": [{"measurement": "EC30", "result": "+++ (“+++” means <3 uM)"}]}, {"smiles": "CC1(C)CCCc2cc(C(=O)NS(=O)(=O)c3cccc(N)c3)c(-c3ccccc3)nc21", "note": "[Compound 685, N-(3-aminophenyl)sulfonyl-8,8-dimethyl-2-phenyl-6,7-dihydro-5H-quinoline-3-carboxamide]", "values": [{"measurement": "EC30", "result": "+++ (“+++” means <3 uM)"}]}, {"smiles": "Cc1cc(C)c(Oc2nc(-c3cccc(CN4CCCCC4)c3)ccc2C(=O)NS(=O)(=O)c2cccc(N)n2)c(C)c1", "note": "[Compound 686, N-[(6-amino-2-pyridyl)sulfonyl]-6-[13-(1-piperidylmethyl)phenyl]-2-(2,4,6-trimethylphenoxy)pyridine-3-carboxamide]", "values": [{"measurement": "EC30", "result": "+++ (“+++” means <3 uM)"}]}, {"smiles": "CC(C)Oc1ccc(-c2ccc(C(=O)NS(=O)(=O)c3cccc(N)n3)c(N3[C@@H](C)CC[C@@H]3C)n2)cn1", "note": "[Compound 687, N-[(6-amino-2-pyridyl)sulfonyl]-2-[(2S,5S)-2,5-dimethylpyrrolidin-1-yl]-6-(6-isopropoxy-3-pyridyl)pyridine-3-carboxamide]", "values": [{"measurement": "EC30", "result": "++ (“++” means between 3 uM and 10 uM)"}]}, {"smiles": "CC(C)CCOc1cc(F)cc(-c2ccc(C(=O)NS(=O)(=O)c3ccc[nH]c3=O)c(N3[C@H](C)CC[C@@H]3C)n2)c1", "note": "[Compound 688, 2-[(2S,5R)-2,5-dimethylpyrrolidin-1-yl]-6-(3-fluoro-5-isopentyloxy-phenyl)-N-[(2-oxo-1H-pyridin-3-yl)sulfonyl]pyridine-3-carboxamide]", "values": [{"measurement": "EC30", "result": "+++ (“+++” means <3 uM)"}]}, {"smiles": "CC1CC(C)N(c2nc(-c3ccc(OC(C)C)nc3)ccc2C(=O)NS(=O)(=O)c2cccc(N)n2)C1", "note": "(centres unmarked) [Compound 689, N-[(6-amino-2-pyridyl)sulfonyl]-2-(2,4-dimethylpyrrolidin-1-yl)-6-(6-isopropoxy-3-pyridyl)pyridine-3-carboxamide]", "values": [{"measurement": "EC30", "result": "+++ (“+++” means <3 uM)"}]}, {"smiles": "Cc1cc(C)c(CN2Cc3ccccc3CCC2C(=O)NS(=O)(=O)c2cccc(N)n2)c(C)c1", "note": "(centres unmarked) [Compound 690, N-[(6-amino-2-pyridyl)sulfonyl]-2-[(2,4,6-trimethylphenyl)methyl]-1,3,4,5-tetrahydro-2-benzazepine-3-carboxamide]", "values": [{"measurement": "EC30", "result": "++ (“++” means between 3 uM and 10 uM)"}]}, {"smiles": "Cc1cc(C)c(Oc2nc(-n3cc(C(F)(F)F)cn3)ccc2C(=O)NS(=O)(=O)c2cccc(N)n2)c(C)c1", "note": "[Compound 691, N-[(6-amino-2-pyridyl)sulfonyl]-6-[4-(trifluoromethyl)pyrazol-1-yl]-2-(2,4,6-trimethylphenoxy)pyridine-3-carboxamide]", "values": [{"measurement": "EC30", "result": "+++ (“+++” means <3 uM)"}]}, {"smiles": "CCCOc1cc(-c2ccc(C(=O)NS(=O)(=O)c3cccc(N)n3)c(N3CCC(C)CC3)n2)ccc1Cl", "note": "[Compound 692, N-[(6-amino-2-pyridyl)sulfonyl]-6-(4-chloro-3-propoxy-phenyl)-2-(4-methyl-1-piperidyl)pyridine-3-carboxamide]", "values": [{"measurement": "EC30", "result": "+++ (“+++” means <3 uM)"}]}, {"smiles": "CC1CN(c2nc(-c3ccc(C(C)C)cc3)ccc2C(=O)NS(=O)(=O)c2cccc(N)n2)C(C)(C)C1", "note": "(centres unmarked) [Compound 693, N-[(6-amino-2-pyridyl)sulfonyl]-6-(4-isopropylphenyl)-2-(2,2,4-trimethylpyrrolidin-1-yl)pyridine-3-carboxamide]", "values": [{"measurement": "EC30", "result": "+++ (“+++” means <3 uM)"}]}, {"smiles": "CC(C)COc1cc(F)cc(-c2ccc(C(=O)NS(=O)(=O)c3cccc(N)n3)c(N3CCC[C@H]3C)n2)c1", "note": "[Compound 694, N-[(6-amino-2-pyridyl)sulfonyl]-6-(3-fluoro-5-isobutoxy-phenyl)-2-[(2R)-2-methylpyrrolidin-1-yl]pyridine-3-carboxamide]", "values": [{"measurement": "EC30", "result": "+++ (“+++” means <3 uM)"}]}, {"smiles": "CC(C)COc1cccc(-c2ccc(C(=O)NS(=O)(=O)c3cccc(N)n3)c(N3CC(C)CC3(C)C)n2)c1", "note": "(centres unmarked) [Compound 695, N-[(6-amino-2-pyridyl)sulfonyl]-6-(3-isobutoxyphenyl)-2-(2,2,4-trimethylpyrrolidin-1-yl)pyridine-3-carboxamide]", "values": [{"measurement": "EC30", "result": "+++ (“+++” means <3 uM)"}]}, {"smiles": "Cc1cc(C)c(CN2CCCc3ccccc3C2C(=O)NS(=O)(=O)c2cccc(N)n2)c(C)c1", "note": "(centres unmarked) [Compound 696, N-[(6-amino-2-pyridyl)sulfonyl]-2-[(2,4,6-trimethylphenyl)methyl]-1,3,4,5-tetrahydro-2-benzazepine-1-carboxamide]", "values": [{"measurement": "EC30", "result": "+++ (“+++” means <3 uM)"}]}]}
